[AmNA] = 2',4'-bridged nucleic acid with N-methyl amide bridge (AmNA); d = 2'-deoxy (DNA)
Columns and labels:
FBXL19 mRNA = experiment: Off-target gene mRNA by real-time PCR in HLE cells (FBXL19); type: cell-based, human; settings: HLE cells transfected at 25 nM
Experimental: Potential off-target genes in ARL4C ASO (hARL4C ASO-1316-AmNA [15-mer] (ARL4C ASO-1316) and hARL4C-3223-AmNA [19-mer] (ARL4C ASO-3223)) were identified by using database “Human Genomic plus Transcript (Human G+T)” (Build 2.7.1) as well as basic local alignment search tools (BLAST+programs) using MegaBlast algorithm.
Cell migration assays and quantitative real-time PCR analyses were performed according to the methods reported by Fujii S et al. (Oncogene 2015; 34: 4834-44).
Four genes of neurolysin (NLN), sapiens F-box and leucine-rich repeat protein 19 (FBXL19), keratin-associated protein 15-1 (KRTAP15-1), and sialic acid binding Ig-like lectin 6 (SIGLEC6) were identified as candidates for off-target genes of ASO-1316 and ASO-3223 by in silico analysis. HLE cells were transfected with ASO-1316 and ASO-3223 at 25 nM each, and mRNA amounts of NLN and FBXL19 were measured by real-time PCR; the results are shown in (d) of FIG. 3. […] In addition, KRTAP15-1 and SIGLEC6 were only slightly expressed in the HLE cells (data not shown).

HLE cells [1] = experiment: Cell proliferation assay (CyQUANT NF) in HLE cells; type: cell-based; settings: HLE cells transfected with ASO at 25 nM
Experimental: (§1) HLE cells, HCT116 cells, and A549 cells were transfected with 25 to 50 nM ASO and 10 to 20 nM siRNA using Lipofectamine 3000 (Invitrogen, Carlsbad, CA, USA) or RNAiMAX (Invitrogen). Transfected cells were used in the experiments 36 to 48 hours after the end of the transfection.
The cell proliferation assays were performed using the CyQUANT NF Cell Proliferation Assay Kits (Thermo Fisher Scientific), in the way recommended by the manufacturer.
HLE cells were transfected with control ASO, ASO-1316 and ASO-3223 at 25 nM and a proliferation assay was performed; the results of the assay are shown in (e) of FIG. 4.
HLE cells were transfected with control siRNA and PIK3CD siRNA (siRNA against PIK3CD) at 20 nM, and a proliferation assay was performed; the results are shown in (e) of FIG. 5. In addition, an anti-phosphorylated AKT antibody and an anti-AKT antibody as probes were caused to act on cell lysates of HLE cells transfected with control siRNA and PIK3CD siRNA; the results are shown in FIG. 5 (f). HLE cells were transfected with control siRNA and PIK3CD siRNA (siRNA against PIK3CD) at 20 nM and the PIK3CD mRNA amount was measured by real-time PCR; the results are shown in (c) of FIG. 7.

[2] = tested on: nuclear localization of YAP in HLE cells; experiment: Anti-YAP/TAZ antibody staining in HLE cells; type: cell-based; settings: HLE cells transfected at 25 nM
Experimental: as §1
HLE cells or A549 cells were transfected with control ASO, ASO-1316, and ASO-3223 at 25 nM, and were stained with an anti-YAP/TAZ antibody; the results are shown in (c) of FIG. 6.

HLE cells [3] = experiment: Primary liver tumor model, HLE cells transplanted into mouse liver; type: in vivo; settings: for HLE tumorigenesis in the liver: 50 μg/body subcutaneously twice a week from day 0, 29 days after transplantation
Experimental: Pellets of HLE cells (1×10^7 cells) were suspended in 100 μl of Matrigel matrix high concentration (BD Biosciences, San Jose, CA, USA) and were injected into the livers of 8-week-old male nude mice (BALB/cAJcl-nu/nu, CLEA Japan, Inc.) under anesthesia (day 0). From day 0, ASO (50 μg/body; about 2.5 mg/kg) was subcutaneously administered twice a week. Mice were euthanized 29 days after the HLE cell transplantation, and tumors were recovered and subjected to histological analysis.
In a primary liver tumor model in which HLE cells were directly transplanted into the liver, influences of the subcutaneous administration of ARL4C ASO (ASO-1316 and ASO-3223) on liver tumors was examined.
In experiments in the primary liver tumor model, Matrigel containing HEL cells at a high concentration was injected into the liver of a mouse (day 0), and control ASO, ASO-1316, and ASO-3223 were subcutaneously administered on and after day 0, at a frequency of twice a week. The tumor formed in the liver was observed when 29 days had elapsed since the transplantation; the result is shown in (a) of FIG. 8. In addition, when 29 days had elapsed since the transplantation, the tumor formed in the liver was immunostained with an anti-ARL4C antibody and an anti-PIK3CD antibody, the result of which is shown in (b) of FIG. 8, and the tumor was immunostained with an anti-Ki-67 antibody, the result of which is shown in (c) of FIG. 8.

HCT116/Luc cells = experiment: Metastatic tumor model, HCT116/Luc cells transplanted into spleen with liver metastasis; type: in vivo, mouse
Experimental: HCT116/Luc cells (2.5×10^5 cells) were suspended in 100 μl of phosphate buffer solution (PBS), and were injected into the spleens of 8-week-old male nude mice (BALB/cAJcl-nu/nu, CLEA Japan, Inc.) under anesthesia. After 19 days had elapsed since the transplantation, ASO (50 μg/body; about 2.5 mg/kg) was subcutaneously administered twice a week. Mice were euthanized 47 days after the HCT116/Luc cell transplantation and were subjected to histological analysis.
Tumor growth analysis was performed by recording bioluminescence images at a frequency of once a week, in the following manner: VivoGlo luciferin (30 mg/ml) was administered intraperitoneally, and 10 minutes after the administration of VivoGlo luciferin, recording was carried out using an IVIS imaging system (Xenogen Corp., Alameda, CA, USA).
In a metastatic tumor model in which HCT116 cells were transplanted into the spleen and the tumor was caused to metastasize to the liver, influences of the subcutaneous administration of ARL4C ASO (ASO-1316 and ASO-3223) on the liver tumor was examined.
In an experiment in the metastatic tumor model, HCT116/Luc cells were injected into the spleens (day 0), luciferase signals were detected in the livers 19 days after the injection; on and after this day, control ASO, ASO-1316, and ASO-3223 were subcutaneously administered at a frequency of twice a week. When 19, 35 and 47 days had elapsed, the fluorescence of luciferase emitted from the liver tumors was observed, and when 47 days had elapsed, fluorescence intensities of luciferase emitted from the liver tumors were quantified with software of IVIS/Kodak; the results are shown in (a) of FIG. 10. […] In addition, when 47 days had elapsed since the transplantation of HCT116/Luc cells, the tumors formed in the livers were observed, and the tumors formed in the livers were immunostained with an anti-ARL4C antibody; the results are shown in (b) of FIG. 10. The tumors formed in the livers were immunostained with an anti-Ki-67 antibody when 47 days had elapsed since the transplantation of HCT116/Luc cells; the results are shown in (c) of FIG. 10.

[4] = subcutaneous twice a week, day 29

Substance: ASO-3223: 19-mer ARL4C ASO of Table 1, SEQ ID NO 55 (antisense NNNGGTTACAGTATTTNNC; sugars from the 5' end [AmNA]3 d13 [AmNA]2 d1, backbone, methylation of C and the base at N not given here; further chemistry not fully specified)
- FBXL19 mRNA amount (off-target) (FBXL19 mRNA): did not significantly affect the expression
- cell proliferation (HLE cells [1]): inhibit HLE cells from proliferating
- nuclear localization of YAP [2]: did not affect the nuclear localization of YAP
- HLE tumorigenesis in the liver (HLE cells [3]): almost no influence
- antitumor effect in vivo (HLE cells [3]; primary liver tumor model): no antitumor effect was observed
- expression of ARL4C in tumors formed in the liver (immunostaining) (HLE cells [3]; [4]): almost no influence
- expression of PIK3CD in tumors formed in the liver (immunostaining) (HLE cells [3]; [4]): almost no influence
- number of Ki-67-positive cells in liver tumors (HLE cells [3]; [4]): almost no influence
- antitumor effect in the metastatic tumor model (HCT116/Luc cells; subcutaneous twice a week from day 19): did not exert an antitumor effect

Substance: ASO-1316: 15-mer AmNA/phosphorothioate ASO targeting ARL4C, base sequence SEQ ID NO: 1 gcatacctcaggtaa; Table 1 SEQ ID NO 13 (antisense GCATACCTCAGGTAA; AmNA and phosphorothioate modified, pattern not given here)
- FBXL19 mRNA amount (off-target) (FBXL19 mRNA): did not significantly affect the expression
- cell proliferation (HLE cells [1]): inhibit HLE cells from proliferating
- nuclear localization of YAP [2]: did not affect the nuclear localization of YAP
- HLE tumorigenesis in the liver (HLE cells [3]): able to suppress the HLE tumorigenesis
- tumor size as compared with the control ASO (HLE cells [3]; 50 μg/body subcutaneously twice a week, day 29): reduce the tumor size by half
- expression of ARL4C in tumors formed in the liver (immunostaining) (HLE cells [3]; [4]): suppress the expression of ARL4C and PIK3CD
- expression of PIK3CD in tumors formed in the liver (immunostaining) (HLE cells [3]; [4]): suppress the expression of ARL4C and PIK3CD
- histological damage or cell death in the non-tumor area of the liver (HLE cells [3]; [4]): did not induce histological damage or cell death
- number of Ki-67-positive cells in liver tumors (HLE cells [3]; [4]): reduce the number of Ki-67-positive cells
- growth of liver tumors (luciferase) (HCT116/Luc cells; 50 μg/body subcutaneously twice a week from day 19, until day 47): the growth of the tumors until 47 days after the injection could be suppressed
- ARL4C expression level in liver tumor (immunostaining) (HCT116/Luc cells; day 47): decreased ARL4C expression levels
- number of Ki-67 positive cells in liver tumor (HCT116/Luc cells; day 47): decreased numbers of Ki-67 positive cells

Reference: US12071624B2, “Antisense oligonucleotide targeting ARL4C molecule, and nucleic acid drug using antisense oligonucleotide” (OSAKA UNIVERSITY, priority 2018, dated 2024)
